System: intact washed human platelets
Assay: [3H]PAF radioligand binding to intact washed human platelets after preincubation with plasma fractions (FIG. 1)
Description: Washed intact human thrombocytes are protected with plasma fractions from healthy volunteers (n=3, means, ±1 S.D.).
The thrombocytes are further preincubated with dialyzed, delipidated plasma proteins (0.36 mg/ml), with purified VLDL-fractions (0.9 mg/ml), with IDL (0.02 mg/ml), with HDL (0.5 mg/ml) or with delipidated HSA (0.25%).
Washed thrombocytes are tested in the presence of thioether-2-acyl-glycero-phosphatidylcholines (500 nM) compared to controls.

Substance	total [3H]PAF binding (500 nM unlabeled PAF, n=3, control 22±3 fmol)	total binding of [3H]PAF (500 nM Thio-GPC, washed thrombocytes, compared to controls)
alkyl-acetyl-sn-glycero-phosphocholines [PAF]	6±2 fmol per 10^8 cells/ml	
thioether-2-acyl-glycero-phosphatidylcholines [Thio-GPC]		do not at all change
